The text below walks through data of publication PMC3004530 (Journal of the American Chemical Society, 2010).

Experiment [1] concerns the target HDAC1 (Homo sapiens, UniProt Q13547). Briefly: HDAC1 biochemical inhibition assay. The settings on record: read-out: IC50 HDAC1.
The target of experiment [2] is HDAC2 (Homo sapiens, UniProt Q92769). Briefly: HDAC2 high-throughput coupled biochemical assay.
The target of experiment [3] is HDAC3 (Homo sapiens, UniProt O15379). Put plainly: HDAC3 biochemical inhibition assay. The following applies: read-out: IC50 HDAC3.
Chain of HDAC3 (O15379 whole entry, species assumed): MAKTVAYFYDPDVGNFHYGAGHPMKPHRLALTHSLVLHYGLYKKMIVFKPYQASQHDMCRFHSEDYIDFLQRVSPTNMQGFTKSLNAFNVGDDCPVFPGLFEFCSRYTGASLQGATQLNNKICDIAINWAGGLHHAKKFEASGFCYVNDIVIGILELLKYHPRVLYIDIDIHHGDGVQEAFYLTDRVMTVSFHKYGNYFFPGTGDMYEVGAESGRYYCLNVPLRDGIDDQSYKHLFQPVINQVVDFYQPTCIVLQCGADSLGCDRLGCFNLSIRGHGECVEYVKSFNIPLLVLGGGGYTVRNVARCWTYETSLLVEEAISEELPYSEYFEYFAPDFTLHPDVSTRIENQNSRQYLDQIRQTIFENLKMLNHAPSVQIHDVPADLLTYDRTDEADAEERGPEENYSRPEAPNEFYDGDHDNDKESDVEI
Chain of HDAC3 (Q9Y618 395-489 partner limits assumed, species assumed): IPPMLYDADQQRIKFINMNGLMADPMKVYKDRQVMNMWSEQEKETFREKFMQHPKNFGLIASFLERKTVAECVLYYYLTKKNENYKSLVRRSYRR
The test system of experiment [4] is HDACs 4-8. Put plainly: HDAC biochemical inhibition, HDACs 4-8. The settings on record: data not shown.
The test system of experiment [5] is HDAC. The following applies: cited from earlier work.
Experiment [6] deals with HDAC6 (Homo sapiens, UniProt Q9UBN7).
Chain of HDAC6 (Q9UBN7 whole entry, species assumed): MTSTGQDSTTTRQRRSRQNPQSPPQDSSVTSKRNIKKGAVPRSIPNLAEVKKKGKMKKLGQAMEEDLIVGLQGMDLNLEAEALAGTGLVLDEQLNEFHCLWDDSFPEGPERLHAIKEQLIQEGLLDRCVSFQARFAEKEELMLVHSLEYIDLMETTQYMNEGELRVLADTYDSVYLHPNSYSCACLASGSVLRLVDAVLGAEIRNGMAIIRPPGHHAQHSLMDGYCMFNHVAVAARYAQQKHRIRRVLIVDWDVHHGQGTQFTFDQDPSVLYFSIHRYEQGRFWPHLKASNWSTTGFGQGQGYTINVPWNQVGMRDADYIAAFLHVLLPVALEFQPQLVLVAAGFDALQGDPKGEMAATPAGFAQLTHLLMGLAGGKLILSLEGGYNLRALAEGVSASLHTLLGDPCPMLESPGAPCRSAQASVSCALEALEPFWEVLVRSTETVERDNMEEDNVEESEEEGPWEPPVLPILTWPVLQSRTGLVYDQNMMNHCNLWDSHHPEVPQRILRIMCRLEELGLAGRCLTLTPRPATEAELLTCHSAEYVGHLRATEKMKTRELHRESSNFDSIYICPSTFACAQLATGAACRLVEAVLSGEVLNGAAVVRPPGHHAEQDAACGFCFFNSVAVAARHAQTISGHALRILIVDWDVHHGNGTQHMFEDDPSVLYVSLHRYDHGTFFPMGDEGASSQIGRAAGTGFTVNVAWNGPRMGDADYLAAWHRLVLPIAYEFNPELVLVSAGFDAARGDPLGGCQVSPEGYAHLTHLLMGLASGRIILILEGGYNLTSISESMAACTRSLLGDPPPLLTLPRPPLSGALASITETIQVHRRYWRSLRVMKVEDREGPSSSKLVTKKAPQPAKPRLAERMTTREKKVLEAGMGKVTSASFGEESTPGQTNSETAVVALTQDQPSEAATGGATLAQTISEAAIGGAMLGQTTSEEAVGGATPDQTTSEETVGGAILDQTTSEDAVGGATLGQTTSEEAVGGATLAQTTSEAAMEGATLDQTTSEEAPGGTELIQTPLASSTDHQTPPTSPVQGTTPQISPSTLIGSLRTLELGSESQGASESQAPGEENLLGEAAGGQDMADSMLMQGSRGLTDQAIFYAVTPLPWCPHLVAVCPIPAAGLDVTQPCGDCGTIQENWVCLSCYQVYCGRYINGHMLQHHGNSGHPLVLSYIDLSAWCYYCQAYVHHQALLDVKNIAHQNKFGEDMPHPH
Experiment [7] has as its system HDACs 1, 2 and 3. Briefly: Mode of inhibition / deacetylation progression. The format is biochemical.
The target in experiment [8] is HDAC8 (Homo sapiens, UniProt Q9BY41).
Chain of HDAC8 (Q9BY41 whole entry, species assumed): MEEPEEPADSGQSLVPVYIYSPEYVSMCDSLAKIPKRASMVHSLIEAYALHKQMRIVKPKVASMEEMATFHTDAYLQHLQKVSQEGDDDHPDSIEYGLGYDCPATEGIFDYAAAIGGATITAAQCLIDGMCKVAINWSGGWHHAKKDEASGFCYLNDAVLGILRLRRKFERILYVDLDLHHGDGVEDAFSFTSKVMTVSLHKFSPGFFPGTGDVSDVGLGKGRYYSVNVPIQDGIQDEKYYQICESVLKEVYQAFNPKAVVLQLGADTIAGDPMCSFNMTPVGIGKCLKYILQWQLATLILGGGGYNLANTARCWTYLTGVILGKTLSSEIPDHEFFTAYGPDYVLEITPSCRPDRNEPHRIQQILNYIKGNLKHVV

Where only a bound is given, the exact number is not on record here.

Chain of HDAC2 (Q92769 whole entry, species assumed): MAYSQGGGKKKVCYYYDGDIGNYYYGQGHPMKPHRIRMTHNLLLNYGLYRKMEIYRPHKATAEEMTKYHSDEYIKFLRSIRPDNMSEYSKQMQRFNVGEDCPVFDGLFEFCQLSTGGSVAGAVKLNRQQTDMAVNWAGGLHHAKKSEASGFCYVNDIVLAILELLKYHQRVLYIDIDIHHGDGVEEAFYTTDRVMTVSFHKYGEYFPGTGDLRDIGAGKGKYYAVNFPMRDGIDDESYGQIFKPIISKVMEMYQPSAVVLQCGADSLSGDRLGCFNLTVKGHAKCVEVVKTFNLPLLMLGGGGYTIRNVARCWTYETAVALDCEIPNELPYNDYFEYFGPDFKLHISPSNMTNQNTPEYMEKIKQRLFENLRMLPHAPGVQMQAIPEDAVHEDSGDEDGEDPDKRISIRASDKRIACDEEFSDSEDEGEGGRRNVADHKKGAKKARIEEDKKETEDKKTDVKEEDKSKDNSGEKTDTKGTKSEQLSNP
Chain of HDAC1 (Q13547 whole entry, species assumed): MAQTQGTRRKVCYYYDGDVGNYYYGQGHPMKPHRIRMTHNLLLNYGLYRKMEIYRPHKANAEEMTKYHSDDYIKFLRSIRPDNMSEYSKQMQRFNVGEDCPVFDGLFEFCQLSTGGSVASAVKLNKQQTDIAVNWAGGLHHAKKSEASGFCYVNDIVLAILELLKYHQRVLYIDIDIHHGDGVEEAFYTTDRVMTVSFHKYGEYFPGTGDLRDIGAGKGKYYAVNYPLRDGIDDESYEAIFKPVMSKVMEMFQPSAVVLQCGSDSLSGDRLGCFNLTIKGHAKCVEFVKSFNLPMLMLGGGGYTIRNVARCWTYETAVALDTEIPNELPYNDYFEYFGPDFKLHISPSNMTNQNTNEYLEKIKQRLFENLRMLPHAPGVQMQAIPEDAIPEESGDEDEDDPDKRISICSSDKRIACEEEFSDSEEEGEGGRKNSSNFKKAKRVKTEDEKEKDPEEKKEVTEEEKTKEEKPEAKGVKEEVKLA

One may read the IC50 as the concentration at which inhibition is half-maximal. As to `C[C@@H]1CCCCO[C@@H](CN(C)Cc2ccc3c(c2)OCO3)[C@H](C)CN([C@@H](C)CO)C(=O)c2cc(N(C)C)ccc2O1` [entry 1], the 50% inhibitory concentration (IC50) came to 2.7 ± 0.3 µM in experiment [1], 6.6 ± 0.4 µM in experiment [2] (read-out: IC50 HDAC2) and 2.7 ± 0.2 µM in experiment [3]. Moreover, in experiment [2] (compared to lead stereoisomer (2R,5S,6R,12R)-32), the “fold improvement in HDAC2 potency” value was over 10 fold. The “activity against HDACs 4-8” value in experiment [4] is “inactive”.

Take `CCC(=O)CCCCC[C@@H]1NC(=O)[C@H]2CCCCN2C(=O)[C@H]([C@@H](C)CC)NC(=O)[C@H](Cc2cn(OC)c3ccccc23)NC1=O` [Apicidin]: in experiment [5], the HDAC class selectivity entry was “selectivity for class I HDACs” and the “potency in HDAC biochemical assay” value is reported as “single digit nanomolar potency”.

Regarding `O=C(CCCCCCC(=O)Nc1ccccc1)NO` [SAHA], the “inhibition of HDAC6” value in experiment [6] is recorded as “inhibits”. Moreover, the “binding kinetics nature (deacetylation progression linear)” value in experiment [7] is recorded as “fast-on/fast-off”. Also, the “inhibition of HDAC8” value in experiment [8] is on record as “inhibits”.
